PubChem BioAssay AID1919016 (Molecular Pharmacology Branch, DTP, NCI, 2023)

Test system: NCI-H196 complex spheroid growth, percent test/control
Assay: Anticancer human tumor NCI-H196 cell line growth inhibition [AhR];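 also: seven days of drug exposure starting three days after plating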;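 as to viability, T/C: 100% = DMSO vehicle control wells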
Conditions: for IC50: curve of first compound; for viability, T/C: stronger effect = lower value; active = viability on the fitted dose curve at most 10% of control; inactive = the rest
Outline: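 Complex tumor spheroids co-cultured with HUVEC and human MSC stroma; AhR antagonists tested in combination with standard-of-care and investigational agents. Top concentration at or near clinical Cmax (else 10 microM), half-log dilutions; growth expressed as percent test/control.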

[1] = second compound 0.1 µM, first compound 0.0316 µM
[2] = second compound 0.1 µM, first compound 0.1 µM
[3] = second compound 0.316 µM, first compound 0.0316 µM
[4] = second compound 0.316 µM, first compound 0.1 µM
[5] = second compound 1 µM, first compound 0.0316 µM
[6] = second compound 1 µM, first compound 0.1 µM
[7] = second compound 3.16 µM, first compound 0.0316 µM
[8] = second compound 3.16 µM, first compound 0.1 µM
[9] = second compound 10 µM, first compound 0.0316 µM
[10] = second compound 10 µM, first compound 0.1 µM

Cn1ncnc1C1c2n[nH]c(=O)c3cc(F)cc(c23)NC1c1ccc(F)cc1 (stereo not given) + CC(CO)NC(=O)c1cc(-c2ccc(Cl)cc2)nn(-c2cnn(C)c2)c1=O
inactive: viability, T/C (second compound 0.1 µM, first compound 0.000316 µM) 111% | viability, T/C (second compound 0.1 µM, first compound 0.001 µM) 107% | viability, T/C (second compound 0.1 µM, first compound 0.00316 µM) 103% | viability, T/C (second compound 0.1 µM, first compound 0.01 µM) 102% | viability, T/C [1] 113% | viability, T/C [2] 103% | viability, T/C (second compound 0.316 µM, first compound 0.000316 µM) 104% | viability, T/C (second compound 0.316 µM, first compound 0.001 µM) 109% | viability, T/C (second compound 0.316 µM, first compound 0.00316 µM) 102% | viability, T/C (second compound 0.316 µM, first compound 0.01 µM) 99.2% | viability, T/C [3] 101% | viability, T/C [4] 105% | viability, T/C (second compound 1 µM, first compound 0.000316 µM) 113% | viability, T/C (second compound 1 µM, first compound 0.001 µM) 112% | viability, T/C (second compound 1 µM, first compound 0.00316 µM) 104% | viability, T/C (second compound 1 µM, first compound 0.01 µM) 105% | viability, T/C [5] 114% | viability, T/C [6] 109% | viability, T/C (second compound 3.16 µM, first compound 0.000316 µM) 106% | viability, T/C (second compound 3.16 µM, first compound 0.001 µM) 119% | viability, T/C (second compound 3.16 µM, first compound 0.00316 µM) 118% | viability, T/C (second compound 3.16 µM, first compound 0.01 µM) 104% | viability, T/C [7] 103% | viability, T/C [8] 107% | viability, T/C (second compound 10 µM, first compound 0.000316 µM) 122% | viability, T/C (second compound 10 µM, first compound 0.001 µM) 111% | viability, T/C (second compound 10 µM, first compound 0.00316 µM) 110% | viability, T/C (second compound 10 µM, first compound 0.01 µM) 103% | viability, T/C [9] 108% | viability, T/C [10] 104%
> 100 nM: IC50 (second compound 0.1 µM) | IC50 (second compound 0.316 µM) | IC50 (second compound 1 µM) | IC50 (second compound 3.16 µM) | IC50 (second compound 10 µM)

Nc1ncn(C2CC(O)C(CO)S2)c(=O)n1 (stereo not given) + Cc1ccccc1N=Nc1ccc(NC(=O)c2ccnn2C)c(C)c1
inactive: viability, T/C (second compound 0.1 µM, first compound 0.000949 µM) 95% | viability, T/C (second compound 0.1 µM, first compound 0.003 µM) 93.4% | viability, T/C (second compound 0.1 µM, first compound 0.00949 µM) 99.1% | viability, T/C (second compound 0.1 µM, first compound 0.03 µM) 96.8% | viability, T/C (second compound 0.1 µM, first compound 0.0949 µM) 102% | viability, T/C (second compound 0.1 µM, first compound 0.3 µM) 101% | viability, T/C (second compound 0.316 µM, first compound 0.000949 µM) 105% | viability, T/C (second compound 0.316 µM, first compound 0.003 µM) 96.2% | viability, T/C (second compound 0.316 µM, first compound 0.00949 µM) 104% | viability, T/C (second compound 0.316 µM, first compound 0.03 µM) 96% | viability, T/C (second compound 0.316 µM, first compound 0.0949 µM) 101% | viability, T/C (second compound 0.316 µM, first compound 0.3 µM) 95.4% | viability, T/C (second compound 1 µM, first compound 0.000949 µM) 97.6% | viability, T/C (second compound 1 µM, first compound 0.003 µM) 89.9% | viability, T/C (second compound 1 µM, first compound 0.00949 µM) 97.9% | viability, T/C (second compound 1 µM, first compound 0.03 µM) 87.3% | viability, T/C (second compound 1 µM, first compound 0.0949 µM) 91% | viability, T/C (second compound 1 µM, first compound 0.3 µM) 104% | viability, T/C (second compound 3.16 µM, first compound 0.000949 µM) 89.3% | viability, T/C (second compound 3.16 µM, first compound 0.003 µM) 102% | viability, T/C (second compound 3.16 µM, first compound 0.00949 µM) 100% | viability, T/C (second compound 3.16 µM, first compound 0.03 µM) 93.7% | viability, T/C (second compound 3.16 µM, first compound 0.0949 µM) 97.7% | viability, T/C (second compound 3.16 µM, first compound 0.3 µM) 99.5% | viability, T/C (second compound 10 µM, first compound 0.000949 µM) 85.1% | viability, T/C (second compound 10 µM, first compound 0.003 µM) 82.4% | viability, T/C (second compound 10 µM, first compound 0.00949 µM) 86.2% | viability, T/C (second compound 10 µM, first compound 0.03 µM) 86.2% | viability, T/C (second compound 10 µM, first compound 0.0949 µM) 90.5% | viability, T/C (second compound 10 µM, first compound 0.3 µM) 92.1%
> 300 nM: IC50 (second compound 0.1 µM) | IC50 (second compound 0.316 µM) | IC50 (second compound 1 µM) | IC50 (second compound 3.16 µM) | IC50 (second compound 10 µM)

COc1cc(C2c3cc4c(cc3C(OC3OC5COC(C)OC5C(O)C3O)C3COC(=O)C23)OCO4)cc(OC)c1O (stereo not given) + Cc1cncc(-c2nc(NCCc3c[nH]c4ccccc34)c3ncn(C(C)C)c3n2)c1
> 10000 nM: IC50 (second compound 0.1 µM) | IC50 (second compound 0.316 µM) | IC50 (second compound 1 µM) | IC50 (second compound 3.16 µM) | IC50 (second compound 10 µM)
inactive: viability, T/C [1] 104% | viability, T/C [2] 103% | viability, T/C (second compound 0.1 µM, first compound 0.316 µM) 98.9% | viability, T/C (second compound 0.1 µM, first compound 1 µM) 99.8% | viability, T/C (second compound 0.1 µM, first compound 3.16 µM) 103% | viability, T/C (second compound 0.1 µM, first compound 10 µM) 96.7% | viability, T/C [3] 104% | viability, T/C [4] 109% | viability, T/C (second compound 0.316 µM, first compound 0.316 µM) 101% | viability, T/C (second compound 0.316 µM, first compound 1 µM) 105% | viability, T/C (second compound 0.316 µM, first compound 3.16 µM) 112% | viability, T/C (second compound 0.316 µM, first compound 10 µM) 89.4% | viability, T/C [5] 99.7% | viability, T/C [6] 112% | viability, T/C (second compound 1 µM, first compound 0.316 µM) 104% | viability, T/C (second compound 1 µM, first compound 1 µM) 109% | viability, T/C (second compound 1 µM, first compound 3.16 µM) 103% | viability, T/C (second compound 1 µM, first compound 10 µM) 77.8% | viability, T/C [7] 108% | viability, T/C [8] 114% | viability, T/C (second compound 3.16 µM, first compound 0.316 µM) 112% | viability, T/C (second compound 3.16 µM, first compound 1 µM) 105% | viability, T/C (second compound 3.16 µM, first compound 3.16 µM) 100% | viability, T/C (second compound 3.16 µM, first compound 10 µM) 81.9% | viability, T/C [9] 89.1% | viability, T/C [10] 92% | viability, T/C (second compound 10 µM, first compound 0.316 µM) 101% | viability, T/C (second compound 10 µM, first compound 1 µM) 84.3% | viability, T/C (second compound 10 µM, first compound 3.16 µM) 77.4% | viability, T/C (second compound 10 µM, first compound 10 µM) 62%
